US6066642A, “Dihydropyridine-, pyridine-, benzopyran-4-one- and triazoloquinazoline derivative, their preparation and their use as adenosine receptor antagonists” (priority 1998, dated 2000)
Like-named read-outs stand apart in the source and are kept apart here. One block for each compound: values may come before it.

Assays:
A1 receptors = biological target: T1, A1 receptors (Rattus norvegicus, UniProt P25099); test: biochemical; format: binding; conditions: for Ki: [3H]PIA, rat brain membranes
T1 sequence (P25099 1-326): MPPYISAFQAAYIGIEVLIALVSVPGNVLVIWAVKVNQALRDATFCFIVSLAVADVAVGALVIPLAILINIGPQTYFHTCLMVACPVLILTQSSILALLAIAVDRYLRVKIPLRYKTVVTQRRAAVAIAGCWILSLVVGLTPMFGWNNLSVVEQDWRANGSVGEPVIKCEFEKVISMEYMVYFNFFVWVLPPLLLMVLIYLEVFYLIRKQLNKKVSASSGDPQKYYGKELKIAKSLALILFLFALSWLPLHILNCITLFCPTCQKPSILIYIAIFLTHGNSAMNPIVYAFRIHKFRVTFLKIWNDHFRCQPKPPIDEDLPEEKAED
Procedure: ^a Displacement of specific [^3 H] PIA binding in rat brain
percentage of specific binding displaced at 100 μM.

human A3 receptors = biological target: T2, human A3 receptors (Homo sapiens, UniProt P0DMS8); test: radioligand binding, displacement of specific [125I]AB-MECA binding at human A3 receptors expressed in HEK-293 cells; conditions: for inhibition at 10 µM: 10^-5 M; for inhibition at 100 µM: 10^-4 M; for Ki: [125I]AB-MECA, HEK membranes, read-out: Ki hA3
T2 construct: expressed in transfected cells; host or cells: HEK-293 cells (membranes)
T2 sequence (P0DMS8 1-318): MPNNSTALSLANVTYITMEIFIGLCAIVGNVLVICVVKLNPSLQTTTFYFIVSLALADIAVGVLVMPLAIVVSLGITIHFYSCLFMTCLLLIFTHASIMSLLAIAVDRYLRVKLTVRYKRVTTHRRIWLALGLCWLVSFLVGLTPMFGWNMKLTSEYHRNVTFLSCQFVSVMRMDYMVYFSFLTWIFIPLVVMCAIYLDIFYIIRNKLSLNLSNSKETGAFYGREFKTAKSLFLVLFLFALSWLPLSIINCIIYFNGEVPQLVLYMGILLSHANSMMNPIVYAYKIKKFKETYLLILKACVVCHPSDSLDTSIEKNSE
Procedure: A3 receptors expressed in HEK293 cells, in membranes, expressed as
binding displaced at 100 μM.

A2a receptors = biological target: T3, A2a receptors (Rattus norvegicus, UniProt P30543); test: radioligand binding, displacement of specific [3H]CGS 21680 binding in rat striatal membranes; conditions: for Ki: [3H]CGS 21680, rat striatal membranes; for inhibition at 100 µM: 10^-4 M
T3 construct: Displacement of specific [^3 H]; from tissue; host or cells: rat striatal membranes
Procedure: ^b Displacement of specific [^3 H]
or as a percentage of specific binding displaced at 100 μM.

[1] = Table 7, read-out: % of specific binding displaced hA3
[2] = Table 7, read-out: displacement of specific binding rA2A
[3] = Table 7, read-out: displacement of specific binding hA3

T3 sequence (P30543 whole entry): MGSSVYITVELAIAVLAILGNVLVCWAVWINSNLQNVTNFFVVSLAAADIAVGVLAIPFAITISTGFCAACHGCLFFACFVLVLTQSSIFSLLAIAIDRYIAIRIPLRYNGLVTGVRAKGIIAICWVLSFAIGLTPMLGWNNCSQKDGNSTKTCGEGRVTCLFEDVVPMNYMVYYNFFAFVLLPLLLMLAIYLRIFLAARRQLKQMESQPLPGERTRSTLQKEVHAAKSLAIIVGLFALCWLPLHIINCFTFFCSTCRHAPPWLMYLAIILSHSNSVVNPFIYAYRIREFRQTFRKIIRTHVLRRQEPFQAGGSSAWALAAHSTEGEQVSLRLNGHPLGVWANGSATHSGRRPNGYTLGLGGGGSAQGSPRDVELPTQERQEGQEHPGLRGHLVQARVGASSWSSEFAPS

Structure (SMILES): O=c1cc(-c2ccccc2)oc2c1ccc1ccccc12 [Compound 43, α-naphthoflavone, reference compound]
Ki (A1 receptors; Table 7, read-out: Ki (rA1)): 786 nM | inhibition at 10 µM (human A3 receptors; [1]): 71 ± 2% | Ki (A2a receptors; Table 7, read-out: Ki (rA2A)): 1320 ± 430 nM

Ki (A1 receptors; Table 7, read-out: Ki (rA1)): 8800 ± 3600 nM | inhibition at 10 µM (human A3 receptors; [1]): 12 ± 1% | inhibition at 100 µM (A2a receptors; [2]): < 10%
Structure (SMILES): O=c1cc(-c2ccccc2)oc2ccc3ccccc3c12 [Compound 44, β-naphthoflavone, reference compound]

Structure (SMILES): CCn1c2c(c3cc4c(cc3c1=O)OCO4)C(=O)CCC2 [Compound 46, reference compound]
Ki (A1 receptors; Table 7, read-out: Ki (rA1)): 7590 ± 2140 nM | inhibition at 100 µM (human A3 receptors; [1]): 19 ± 3% | Ki (A2a receptors; Table 7, read-out: Ki (rA2A)): 6980 ± 2210 nM

Ki (A1 receptors; Table 7, read-out: Ki (rA1)): 5550 ± 830 nM | inhibition at 100 µM (human A3 receptors; [3]): < 10% | inhibition at 100 µM (A2a receptors; [2]): < 10%
Structure (SMILES): COc1cc2c3c(c1)c1cc4c(cc1c(=O)n3CC2)OCO4 [Compound 47, oxogalanthine lactam, reference compound]

Ki (A1 receptors; Table 7, read-out: Ki (rA1)): 52500 ± 3700 nM | inhibition at 100 µM (human A3 receptors; [3]): < 10% | inhibition at 100 µM (A2a receptors; [2]): < 10%
Structure (SMILES): COC1C=CC23c4cc5c(cc4C[N+](C)(CC2OC(C)=O)C3C1)OCO5 (stereo not drawn) [Compound 48, acetylhaemanthine methiodide, reference compound]

Structure (SMILES): Oc1cc2c(cc1O)[C@@H]1c3ccc(O)c(O)c3OC[C@]1(O)C2 [Compound 50, hematoxylin, reference compound]
Ki (A1 receptors; Table 7, read-out: Ki (rA1)): 3100 ± 600 nM | inhibition at 100 µM (human A3 receptors; [3]): < 10% | inhibition at 100 µM (A2a receptors; Table 7, read-out: % of specific binding displaced rA2A): 28 ± 2%

Structure (SMILES): COc1cc2c(c(O)c1OC)c(=O)c1ccccc1n2C [Compound 51, 1-hydroxy-2,3-dimethoxy-10-methyl-9(10H)-acridinone, reference compound]
Ki (A1 receptors; Table 7, read-out: Ki (rA1)): 12700 ± 1200 nM | inhibition at 100 µM (human A3 receptors; [1]): 63 ± 7% | Ki (A2a receptors; Table 7, read-out: Ki (rA2A)): 6470 ± 1900 nM

Ki (A1 receptors; Table 9, read-out: Ki rA1): 5390 ± 330 nM | Ki (human A3 receptors; Table 9): 940 ± 700 nM | Ki (A2a receptors; Table 9, read-out: Ki rA2A): 38300 ± 7900 nM
Structure (SMILES): CCOC(=O)C1=C(C)NC(C)=C(C(=O)OC)C1C#Cc1ccccc1 (stereo not drawn) [Compound 76]
greater affinity to A1 than A2a adenosine receptors (A1 receptors; selectivity in words): greater affinity to A1 adenosine receptors than A2a receptors | greater affinity for A3 than A1 or A2a adenosine receptors (human A3 receptors; selectivity in words): greater affinity for A3 adenosine receptors than A1 or A2a adenosine receptors

Ki (A1 receptors; Table 10, read-out: Ki rA1): 6950 ± 2660 nM | Ki (human A3 receptors; Table 10): 29500 ± 2100 nM | Ki (A2a receptors; Table 10, read-out: Ki rA2a): 8960 ± 930 nM
Structure (SMILES): CCOC(=O)c1c(C)nc(C)c(C(=O)OC)c1C [Compound 80]

inhibition at 100 µM (A1 receptors; Table 10, 10^-4 M, read-out: displacement of specific binding rA1): < 10% | inhibition at 100 µM (human A3 receptors; Table 10, read-out: displacement of specific binding hA3): < 10% | inhibition at 100 µM (A2a receptors; Table 10, read-out: displacement of specific binding rA2a): < 10%
Structure (SMILES): COC(=O)c1c(C)nc(C)c(C(=O)OC)c1-c1ccccc1[N+](=O)[O-] [Compound 82, reference compound]

Structure (SMILES): CCC(=O)Nc1nc2ccc(Cl)cc2c2nc(-c3ccco3)nn12 [Compound 146, 9-Chloro-2-(2-furyl)-5-propionylamino[1,2,4]triazolo[1,5-c]quinazoline]
Ki (A1 receptors; Table 15, read-out: Ki rA1): 283 ± 42 nM | Ki (human A3 receptors; Table 15): 7.66 ± 3.03 nM | rA1/hA3 (human A3 receptors; Table 15, ratio of Ki): 40 | rA2A/hA1 (human A3 receptors; Table 15, ratio of Ki): 14 | Ki (A2a receptors; Table 15, read-out: Ki rA2A): 106 ± 30 nM

Structure (SMILES): CCCC(=O)Nc1nc2ccc(Cl)cc2c2nc(-c3ccco3)nn12 [Compound 147, 5-Butyrylamino-9-chloro-2-(2-furyl)[1,2,4]triazolo[1,5-c]quinazoline]
Ki (A1 receptors; Table 15, read-out: Ki rA1): 32.5 ± 9.4 nM | rA1/hA3 (human A3 receptors): 2.2 | Ki (human A3 receptors; Table 15): 14.6 ± 2.8 nM | Ki (A2a receptors; Table 15, read-out: Ki rA2A): 4 nM

Structure (SMILES): CCCCC(=O)Nc1nc2ccc(Cl)cc2c2nc(-c3ccco3)nn12 [Compound 148, 9-Chloro-2-(2-furyl)-5-pentanoylamino[1,2,4]triazolo[1,5-c]quinazoline]
Ki (A1 receptors; Table 15, read-out: Ki rA1): 28.9 ± 3.7 nM | Ki (human A3 receptors; Table 15): 21.5 ± 6.2 nM | rA1/hA3 (human A3 receptors; Table 15, ratio of Ki): 1.3 | Ki (A2a receptors; Table 15, read-out: Ki rA2A): 16 nM

Structure (SMILES): CC(C)(C)C(=O)Nc1nc2ccc(Cl)cc2c2nc(-c3ccco3)nn12 [Compound 149, 9-Chloro-2-(2-furyl)-5-trimethylacetylamino[1,2,4]triazolo [1,5-c]quinazoline]
Ki (A1 receptors; Table 15, read-out: Ki rA1): 205 ± 20 nM | Ki (human A3 receptors; Table 15): 244 ± 6 nM | rA1/hA3 (human A3 receptors; Table 15, ratio of Ki): 0.84 | Ki (A2a receptors; Table 15, read-out: Ki rA2A): 60 nM

Structure (SMILES): O=C(Nc1nc2ccc(Cl)cc2c2nc(-c3ccco3)nn12)c1ccccc1 [Compound 151, 5-Benzoylamino-9-chloro-2-(2-furyl)[1,2,4]triazolo[1,5-c]quinazoline]
Ki (A1 receptors; Table 15, read-out: Ki rA1): 665 ± 82 nM | Ki (human A3 receptors; Table 15): 4.05 ± 1.39 nM | rA1/hA3 (human A3 receptors; Table 15, ratio of Ki): 164 | rA2A/hA1 (human A3 receptors; Table 15, ratio of Ki): 86 | Ki (A2a receptors; Table 15, read-out: Ki rA2A): 349 ± 42 nM
